Assay results as given in ChEMBL document CHEMBL1201861, “Genomics of Drug Sensitity in Cancer screening data, Wellcome Trust Sanger Institute”.
Values joined by “and” are separate entries in the source; they are usually repeats but may differ in a detail not shown here. Equal values may be shown once.

What was measured:
NCI-H1703 = experiment: cells; assay type: functional, cell-based, Homo sapiens;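 further: growth inhibition of NCI-H1703 cells, read out via a cell viability assay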
Description: SANGER: Inhibition of human NCI-H1703 cell growth in a cell viability assay.

HT55 = experiment: cells; assay type: functional, cell-based, Homo sapiens;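 further: cell viability readout measuring growth inhibition of human HT55 cells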
Description: SANGER: Inhibition of human HT55 cell growth in a cell viability assay.

G-361 = experiment: cells; assay type: functional, cell-based, Homo sapiens
TI-73 = experiment: cells; assay type: functional, cell-based; details: Homo sapiens;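 further: cell viability assay measuring how much compounds suppress growth of the cultured cell line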
Description: SANGER: Inhibition of human TI-73 cell growth in a cell viability assay.

HCT-15 = experiment: cells; assay type: functional, cell-based, Homo sapiens;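 further: cell viability readout, IC50 reflecting suppression of HCT-15 cell growth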
Description: SANGER: Inhibition of human HCT-15 cell growth in a cell viability assay.

CFPAC-1 = experiment: cells; assay type: functional, cell-based; details: Homo sapiens;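 further: cell viability readout used to gauge suppression of CFPAC-1 cell proliferation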
Description: SANGER: Inhibition of human CFPAC-1 cell growth in a cell viability assay.

SW 1116 = experiment: cells; assay type: functional, cell-based; details: Homo sapiens;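 further: growth inhibition of SW1116 cells, read out with a cell viability assay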
Description: SANGER: Inhibition of human SW1116 cell growth in a cell viability assay.

YH-13 = experiment: cells; assay type: functional, cell-based; details: Homo sapiens;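 further: cell viability readout of growth suppression in the human YH-13 cell line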
Description: SANGER: Inhibition of human YH-13 cell growth in a cell viability assay.

MEL-JUSO = experiment: cells; assay type: functional, cell-based, Homo sapiens;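 further: growth inhibition of human MEL-JUSO cells, read out with a cell viability assay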
Description: SANGER: Inhibition of human MEL-JUSO cell growth in a cell viability assay.

BALL-1 = experiment: cells; assay type: functional, cell-based; details: Homo sapiens;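 further: growth inhibition of BALL-1 cells, read out with a cell viability assay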
Description: SANGER: Inhibition of human BALL-1 cell growth in a cell viability assay.

NBsusSR = experiment: cells; assay type: functional, cell-based; details: Homo sapiens;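 further: growth inhibition of the human cell line, read out with a cell viability assay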
Description: SANGER: Inhibition of human NBsusSR cell growth in a cell viability assay.

SW900 = experiment: cells; assay type: functional, cell-based; details: Homo sapiens;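 further: IC50 is the concentration that inhibits SW900 cell growth, measured by a cell viability assay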
Description: SANGER: Inhibition of human SW900 cell growth in a cell viability assay.

NCI-H630 = experiment: cells; assay type: functional, cell-based, Homo sapiens;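 further: growth inhibition of NCI-H630 cells, read out with a cell viability assay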
Description: SANGER: Inhibition of human NCI-H630 cell growth in a cell viability assay.

RH-18 = experiment: cells; assay type: functional, cell-based; details: Homo sapiens, Rh18;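 further: growth inhibition of human RH-18 cells, read out with a cell viability assay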
Description: SANGER: Inhibition of human RH-18 cell growth in a cell viability assay.

D-423MG = experiment: cells; assay type: functional, cell-based; details: Homo sapiens
Description: SANGER: Inhibition of human D-423MG cell growth in a cell viability assay.

NCI-H460 = experiment: cells; assay type: functional, cell-based, Homo sapiens;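 further: cell viability assay scoring growth inhibition of human NCI-H460 cells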
Description: SANGER: Inhibition of human NCI-H460 cell growth in a cell viability assay.

CHP-134 = experiment: SANGER: Inhibition of human CHP-134 cell growth in a cell viability assay.; assay type: functional, cell-based
RL = experiment: cells; assay type: functional, cell-based; details: Homo sapiens
Description: SANGER: Inhibition of human RL cell growth in a cell viability assay.

CCF-STTG1 = experiment: cells; assay type: functional, cell-based; details: Homo sapiens;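 further: growth inhibition of human CCF-STTG1 cells, determined with a cell viability read-out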
Description: SANGER: Inhibition of human CCF-STTG1 cell growth in a cell viability assay.

YT = experiment: cells; assay type: functional, cell-based; details: Homo sapiens
Description: SANGER: Inhibition of human YT cell growth in a cell viability assay.

NCI-H1618 = experiment: cells; assay type: functional, cell-based; details: Homo sapiens;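 further: growth inhibition of human NCI-H1618 cells, measured by a cell viability assay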
Description: SANGER: Inhibition of human NCI-H1618 cell growth in a cell viability assay.

BL-70 = experiment: SANGER: Inhibition of human BL-70 cell growth in a cell viability assay.; assay type: functional, cell-based
NCI-H1734 = experiment: cells; assay type: functional, cell-based; details: Homo sapiens;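 further: growth inhibition of human NCI-H1734 cells, read out with a cell viability assay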
Description: SANGER: Inhibition of human NCI-H1734 cell growth in a cell viability assay.

Kasumi 1 = experiment: cells; assay type: functional, cell-based; details: Homo sapiens;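 further: growth inhibition of human Kasumi-1 cells, read out by a cell viability assay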
Description: SANGER: Inhibition of human KASUMI-1 cell growth in a cell viability assay.

MFE-296 = experiment: SANGER: Inhibition of human MFE-296 cell growth in a cell viability assay.; assay type: functional, cell-based
MHH-CALL-2 = experiment: cells; assay type: functional, cell-based; details: Homo sapiens;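 further: growth inhibition of the cell line, read out in a cell viability assay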
Description: SANGER: Inhibition of human MHH-CALL-2 cell growth in a cell viability assay.

Caov-3 cell line = experiment: cells; assay type: functional, cell-based; details: Homo sapiens;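 further: cell growth inhibition read out by a viability assay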
Description: SANGER: Inhibition of human Caov-3 cell growth in a cell viability assay.

KMS-12-PE = experiment: cells; assay type: functional, cell-based; details: Homo sapiens;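 further: growth inhibition of human KMS-12-PE cells, measured with a cell viability assay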
Description: SANGER: Inhibition of human KMS-12-PE cell growth in a cell viability assay.

ST486 = experiment: SANGER: Inhibition of human ST486 cell growth in a cell viability assay.; assay type: functional, cell-based
TT = experiment: cells; assay type: functional, cell-based; details: Homo sapiens
Description: SANGER: Inhibition of human TT cell growth in a cell viability assay.

RT-4 = experiment: SANGER: Inhibition of human RT4 cell growth in a cell viability assay.; assay type: functional, cell-based
Raji = experiment: cells; assay type: functional, cell-based; details: Homo sapiens;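 further: cell viability assay measuring inhibition of Raji cell growth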
Description: SANGER: Inhibition of human Raji cell growth in a cell viability assay.

EW-7 = experiment: SANGER: Inhibition of human EW-7 cell growth in a cell viability assay.; assay type: functional, cell-based
PLC-PRF-5 = experiment: cells; assay type: functional, cell-based; details: Homo sapiens;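 further: growth inhibition of human PLC-PRF-5 cells, read out with a viability assay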
Description: SANGER: Inhibition of human PLC-PRF-5 cell growth in a cell viability assay.

TUR = experiment: cells; assay type: functional, cell-based; details: Homo sapiens;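 further: growth inhibition of human TUR cells, read out with a cell viability assay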
Description: SANGER: Inhibition of human TUR cell growth in a cell viability assay.

EHEB = experiment: cells; assay type: functional, cell-based; details: Homo sapiens;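 further: growth inhibition of human EHEB cells, read out with a cell viability assay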
Description: SANGER: Inhibition of human EHEB cell growth in a cell viability assay.

DG-75 = experiment: cells; assay type: functional, cell-based; details: Homo sapiens;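 further: growth inhibition of DG-75 cells, read out with a cell viability assay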
Description: SANGER: Inhibition of human DG-75 cell growth in a cell viability assay.

LC4-1 = experiment: cells; assay type: functional, cell-based; details: Homo sapiens;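 further: growth inhibition of LC4-1 cells, read out with a cell viability assay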
Description: SANGER: Inhibition of human LC4-1 cell growth in a cell viability assay.

NCI-H838 = experiment: cells; assay type: functional, cell-based; details: Homo sapiens;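 further: growth inhibition of human NCI-H838 cells, read out by a cell viability assay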
Description: SANGER: Inhibition of human NCI-H838 cell growth in a cell viability assay.

DMS-53 = experiment: cells; assay type: functional, cell-based, Homo sapiens;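 further: cell viability assay measuring growth inhibition of human DMS-53 cells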
Description: SANGER: Inhibition of human DMS-53 cell growth in a cell viability assay.

SNU-475 = experiment: cells; assay type: functional, cell-based; details: Homo sapiens
Description: SANGER: Inhibition of human SNU-475 cell growth in a cell viability assay.

NCI-H2081 = experiment: cells; assay type: functional, cell-based; details: Homo sapiens;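 further: growth inhibition of human NCI-H2081 cells, read out with a cell viability assay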
Description: SANGER: Inhibition of human NCI-H2081 cell growth in a cell viability assay.

EVSA-T = experiment: cells; assay type: functional, cell-based, Homo sapiens;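 further: growth inhibition of EVSA-T cells, read out with a cell viability assay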
Description: SANGER: Inhibition of human EVSA-T cell growth in a cell viability assay.

LP-1 = experiment: cells; assay type: functional, cell-based; details: Homo sapiens;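 further: growth inhibition of human LP-1 cells, with the read-out taken from a cell viability assay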
Description: SANGER: Inhibition of human LP-1 cell growth in a cell viability assay.

SNG-M = experiment: cells; assay type: functional, cell-based; details: Homo sapiens
Description: SANGER: Inhibition of human SNG-M cell growth in a cell viability assay.

GDM-1 = experiment: cells; assay type: functional, cell-based; details: Homo sapiens;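 further: cell viability readout used to measure growth inhibition of human GDM-1 cells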
Description: SANGER: Inhibition of human GDM-1 cell growth in a cell viability assay.

MDA-MB-134-VI = experiment: cells; assay type: functional, cell-based; details: Homo sapiens
Description: SANGER: Inhibition of human MDA-MB-134-VI cell growth in a cell viability assay.

HCC1143 = experiment: cells; assay type: functional, cell-based; details: Homo sapiens;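 further: growth inhibition of human HCC1143 cells, read out with a cell viability assay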
Description: SANGER: Inhibition of human HCC1143 cell growth in a cell viability assay.

ECC4 = experiment: cells; assay type: functional, cell-based; details: Homo sapiens;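 further: growth inhibition of ECC4 cells, read out with a cell viability assay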
Description: SANGER: Inhibition of human ECC4 cell growth in a cell viability assay.

IPC-298 = experiment: SANGER: Inhibition of human IPC-298 cell growth in a cell viability assay.; assay type: functional, cell-based
DV-90 = experiment: cells; assay type: functional, cell-based; details: Homo sapiens;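 further: Read-out is a viability assay, with IC50 reflecting the drop in DV-90 cell growth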
Description: SANGER: Inhibition of human DV-90 cell growth in a cell viability assay.

BOKU = experiment: cells; assay type: functional, cell-based; details: Homo sapiens;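 further: growth inhibition of the human BOKU cell line, read out by a cell viability assay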
Description: SANGER: Inhibition of human BOKU cell growth in a cell viability assay.

MES-SA = experiment: cells; assay type: functional, cell-based, Homo sapiens;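 further: growth inhibition of human MES-SA cells, read out with a cell viability assay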
Description: SANGER: Inhibition of human MES-SA cell growth in a cell viability assay.

MC-CAR = experiment: cells; assay type: functional, cell-based; details: Homo sapiens;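 further: growth inhibition of the human MC-CAR cell line, read out by a cell viability assay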
Description: SANGER: Inhibition of human MC-CAR cell growth in a cell viability assay.

OPM-2 = experiment: cells; assay type: functional, cell-based; details: Homo sapiens;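 further: growth of OPM-2 cells measured with a viability assay, IC50 for suppression of proliferation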
Description: SANGER: Inhibition of human OPM-2 cell growth in a cell viability assay.

Daudi = experiment: cells; assay type: functional, cell-based; details: Homo sapiens;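 further: growth inhibition of Daudi cells, read out by a viability assay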
Description: SANGER: Inhibition of human Daudi cell growth in a cell viability assay.

SK-CO-1 = experiment: cells; assay type: functional, cell-based; details: Homo sapiens;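 further: growth inhibition of SK-CO-1 cells, determined by a viability readout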
Description: SANGER: Inhibition of human SK-CO-1 cell growth in a cell viability assay.

SMILES: CCOc1nc(NC(=O)Cc2cc(OC)ccc2OC)cc(N)c1C#N
- IC50 (NCI-H1703; Homo sapiens, NCI-H1703): > 10 µM
- IC50 (HT55; Homo sapiens, HT55): > 10 µM
- IC50 (G-361; Homo sapiens, G-361): > 10 µM
- IC50 (TI-73): > 10 µM
- IC50 (HCT-15; Homo sapiens, HCT-15): > 10 µM
- IC50 (CFPAC-1): > 10 µM
- IC50 (SW 1116): > 10 µM
- IC50 (YH-13): > 10 µM
- IC50 (MEL-JUSO; Homo sapiens, MEL-JUSO): > 10 µM
- IC50 (BALL-1): > 10 µM
- IC50 (NBsusSR): > 10 µM
- IC50 (SW900): > 10 µM
- IC50 (NCI-H630; Homo sapiens, NCI-H630): > 10 µM
- IC50 (RH-18): > 10 µM
- IC50 (D-423MG): > 10 µM
- IC50 (NCI-H460; Homo sapiens, NCI-H460): > 10 µM
- IC50 (CHP-134): > 10 µM

SMILES: Cc1cc([C@@H](C)Nc2ccccc2C(=O)O)c2nc(N3CCOCC3)cc(=O)n2c1 [AZD-6482]
- IC50 (RL): > 5.12 µM
- IC50 (CCF-STTG1): 1.43 µM
- IC50 (NCI-H1703; Homo sapiens, NCI-H1703): > 5.12 µM
- IC50 (NCI-H1703; nci-h1703): > 5.12 µM
- IC50 (YT): 0.121 µM
- IC50 (NCI-H1618): > 5.12 µM
- IC50 (BL-70): 4.86 µM
- IC50 (NCI-H1734): > 5.12 µM
- IC50 (HT55; Homo sapiens, HT55): > 5.12 µM
- IC50 (HT55; ht55): > 5.12 µM
- IC50 (Kasumi 1): 2.06 µM
- IC50 (MFE-296): 1.57 µM
- IC50 (MHH-CALL-2): > 5.12 µM
- IC50 (G-361; g-361): 3.9 µM and > 5.12 µM
- IC50 (Caov-3 cell line): > 5.12 µM
- IC50 (HCT-15; hct-15): > 5.12 µM
- IC50 (KMS-12-PE): > 5.12 µM
- IC50 (ST486): > 5.12 µM
- IC50 (CFPAC-1): > 5.12 µM
- IC50 (SW 1116): > 5.12 µM
- IC50 (TT): > 5.12 µM
- IC50 (RT-4; rt-4): > 5.12 µM
- IC50 (YH-13): 1.95 µM
- IC50 (Raji): > 5.12 µM
- IC50 (EW-7; ew-7): 0.864 µM and 3.11 µM
- IC50 (MEL-JUSO; mel-juso): > 5.12 µM
- IC50 (PLC-PRF-5): > 5.12 µM
- IC50 (TUR): > 5.12 µM
- IC50 (EHEB): 2.98 µM
- IC50 (DG-75): > 5.12 µM
- IC50 (LC4-1): > 5.12 µM
- IC50 (NCI-H838): > 5.12 µM
- IC50 (DMS-53; Homo sapiens, DMS-53): > 5.12 µM
- IC50 (DMS-53; dms-53): > 5.12 µM
- IC50 (SNU-475): > 5.12 µM
- IC50 (NCI-H2081): > 5.12 µM
- IC50 (SW900): > 5.12 µM
- IC50 (NCI-H630; nci-h630): > 5.12 µM
- IC50 (RH-18): > 5.12 µM
- IC50 (EVSA-T; evsa-t): 3.38 µM and > 5.12 µM
- IC50 (LP-1): > 5.12 µM
- IC50 (SNG-M): > 5.12 µM
- IC50 (GDM-1): 2.24 µM
- IC50 (MDA-MB-134-VI): > 5.12 µM
- IC50 (HCC1143): > 5.12 µM
- IC50 (ECC4): > 5.12 µM
- IC50 (D-423MG): 2.94 µM
- IC50 (IPC-298): > 5.12 µM
- IC50 (DV-90): > 5.12 µM
- IC50 (NCI-H460; nci-h460): > 5.12 µM
- IC50 (BOKU): > 5.12 µM
- IC50 (MES-SA; mes-sa): > 5.12 µM and 1.11 µM
- IC50 (MC-CAR): > 5.12 µM
- IC50 (OPM-2): > 5.12 µM
- IC50 (Daudi): 1.07 µM
- IC50 (SK-CO-1): > 5.12 µM

SMILES: COc1ccc(C2=N[C@@H](c3ccc(Cl)cc3)[C@@H](c3ccc(Cl)cc3)N2C(=O)N2CCNC(=O)C2)c(OC(C)C)c1 [NUTLIN-3]
- IC50 (HT55; Homo sapiens, HT55): > 8 µM
- IC50 (TI-73): > 8 µM
- IC50 (CFPAC-1): > 8 µM
- IC50 (SW 1116): > 8 µM
- IC50 (YH-13): > 8 µM
- IC50 (BALL-1): > 8 µM
- IC50 (NBsusSR): > 8 µM
- IC50 (SW900): > 8 µM
- IC50 (NCI-H630; Homo sapiens, NCI-H630): > 8 µM
- IC50 (RH-18): 4.28 µM
- IC50 (D-423MG): > 8 µM
- IC50 (NCI-H460; Homo sapiens, NCI-H460): 4.91 µM
- IC50 (CHP-134): 2.94 µM

SMILES: O=c1cc(-c2cccc3c2Sc2ccccc2S3)oc(N2CCOCC2)c1 [KU-55933]
- IC50 (NCI-H1703; Homo sapiens, NCI-H1703): > 10 µM
- IC50 (HT55; Homo sapiens, HT55): > 10 µM
- IC50 (G-361; Homo sapiens, G-361): > 10 µM
- IC50 (TI-73): > 10 µM
- IC50 (HCT-15; Homo sapiens, HCT-15): > 10 µM
- IC50 (CFPAC-1): > 10 µM
- IC50 (SW 1116): > 10 µM
- IC50 (YH-13): > 10 µM
- IC50 (MEL-JUSO; Homo sapiens, MEL-JUSO): > 10 µM
- IC50 (BALL-1): > 10 µM
- IC50 (NBsusSR): > 10 µM
- IC50 (SW900): > 10 µM
- IC50 (NCI-H630; Homo sapiens, NCI-H630): > 10 µM
- IC50 (RH-18): > 10 µM
- IC50 (D-423MG): > 10 µM
- IC50 (NCI-H460; Homo sapiens, NCI-H460): > 10 µM
- IC50 (CHP-134): > 10 µM

SMILES: Cc1cnc(-c2cnc(NCCNc3ccc(C#N)cn3)nc2-c2ccc(Cl)cc2Cl)[nH]1 [LADUVIGLUSIB]
- IC50 (RL): > 2.56 µM
- IC50 (CCF-STTG1): > 2.56 µM
- IC50 (NCI-H1703; Homo sapiens, NCI-H1703): > 2.56 µM
- IC50 (YT): > 2.56 µM
- IC50 (NCI-H1618): > 2.56 µM
- IC50 (BL-70): > 2.56 µM
- IC50 (NCI-H1734): > 2.56 µM
- IC50 (HT55; Homo sapiens, HT55): > 2.56 µM
- IC50 (Kasumi 1): > 2.56 µM
- IC50 (MFE-296): > 2.56 µM
- IC50 (MHH-CALL-2): > 2.56 µM
- IC50 (G-361; Homo sapiens, G-361): > 2.56 µM
- IC50 (Caov-3 cell line): > 2.56 µM
- IC50 (HCT-15; Homo sapiens, HCT-15): > 2.56 µM
- IC50 (KMS-12-PE): > 2.56 µM
- IC50 (ST486): > 2.56 µM
- IC50 (TT): > 2.56 µM
- IC50 (RT-4; Homo sapiens, RT-4): > 2.56 µM
- IC50 (Raji): > 2.56 µM
- IC50 (EW-7; Homo sapiens, EW-7): > 2.56 µM
- IC50 (MEL-JUSO; Homo sapiens, MEL-JUSO): > 2.56 µM
- IC50 (PLC-PRF-5): > 2.56 µM
- IC50 (TUR): > 2.56 µM
- IC50 (EHEB): > 2.56 µM
- IC50 (DG-75): > 2.56 µM
- IC50 (LC4-1): > 2.56 µM
- IC50 (NCI-H838): > 2.56 µM
- IC50 (DMS-53; Homo sapiens, DMS-53): > 2.56 µM
- IC50 (SNU-475): > 2.56 µM
- IC50 (NCI-H2081): > 2.56 µM
- IC50 (NCI-H630; Homo sapiens, NCI-H630): > 2.56 µM
- IC50 (EVSA-T; Homo sapiens, EVSA-T): > 2.56 µM
- IC50 (LP-1): > 2.56 µM
- IC50 (SNG-M): > 2.56 µM
- IC50 (GDM-1): > 2.56 µM
- IC50 (MDA-MB-134-VI): > 2.56 µM
- IC50 (HCC1143): > 2.56 µM
- IC50 (ECC4): > 2.56 µM
- IC50 (IPC-298): > 2.56 µM
- IC50 (DV-90): > 2.56 µM
- IC50 (NCI-H460; Homo sapiens, NCI-H460): > 2.56 µM
- IC50 (BOKU): > 2.56 µM
- IC50 (MES-SA; Homo sapiens, MES-SA): > 2.56 µM
- IC50 (MC-CAR): > 2.56 µM
- IC50 (OPM-2): > 2.56 µM
- IC50 (Daudi): > 2.56 µM
- IC50 (SK-CO-1): > 2.56 µM
